# Measured values from US12617783B2, “Heterocyclic GLP-1R agonists” (BIOMEA FUSION, INC., priority 2024, dated 2026).
# “Also recorded” adds a separate entry of the source. Read-outs that look alike come from different tables or passages of the source.
# What was measured:
# [1] = test system: ex-vivo cultured islets from a T2D donor; assay: Glucose-Stimulated Insulin Secretion (GSIS) assay, islets from a T2D donor; type: cell-based
# Procedure: (§1) Glucose-Stimulated Insulin Secretion (GSIS) Assay
# (§2) Purified islets from healthy or Type 2 diabetic donors (Prodo Laboratory, Inc., Aliso Viejo, CA) were cultured in PIM(S) media (Prodo) with 8 mM or 11 mM glucose in a 37° C. water-jacketed incubator with 5% CO2. The GSIS assay followed published procedure (Zhu et al. 2015; Ho et al. 2023). Briefly, islets were conditioned in Krebs-Ringer bicarbonate buffer (KRB, 111 mM NaCl, 4.8 mM KCl, 25 mM NaHCO3, 2.3 mM CaCl2, 1.2 mM MgSO4, 0.15 mM Na2HPO4, 1.2 mM KH2PO4, 10 mM HEPES, 0.2% BSA) containing 2.8 mM glucose for 2 hours with 0.05% DMSO, compound 36 or orforglipron. Size-matched islets were used for each test condition. Islets were washed with KRB once and incubated in fresh KRB containing 2.8 mM glucose with 0.05% DMSO or corresponding compound for one hour to measure the basal insulin secretion in 2.8 mM glucose. Glucose concentration was increased to 11 mM and islets stimulated for one hour in the presence of 0.05% DMSO or corresponding compound to measure stimulated insulin secretion. Supernatants were harvested and insulin secreted under basal and glucose stimulated conditions were quantified using an ELISA kit (ALPCO, Salem, NH). Islets were lysed and genomic DNA was extracted using silicon spin column (Qiagen, Venlo, Netherlands). Insulin secretion was normalized to total genomic DNA.
# Insulin secretion index is the ratio of stimulated insulin secretion at 11 mM glucose/basal insulin secretion at 2.8 mM glucose. […] (Ho, K. H., A. Jayathilake, Y. Mahircan, A. Nour, A. B. Osipovich, M. A. Magnuson, G. Gu, and I. Kaverina. 2023. CAMSAP2 localizes to the Golgi in islet beta-cells and facilitates Golgi-ER trafficking, iScience, 26:105938.Zhu X., R. Hu, M. Brissova, R. W. Stein, A. C. Powers, G. Gu, and I. Kaverina. 2015. Microtubules Negatively Regulate Insulin Secretion in Pancreatic beta Cells, Dev Cell, 34:656-68).
# [2] = cynomolgus monkey, in vivo
# Procedure: (§3) Pharmacokinetic Analysis of the Compound 36, Compound 121, Compound 214, and Orforglipron in Cynomolgus Monkeys
# (§4) Non naïve male cynomolgus monkeys (n=3 monkeys/group) were fasted overnight and fed 4 hours post dose. Compounds of the present application were formulated in 10% polyethylene glycol 400/10% propylene glycol/80% glycine buffer (100 mM glycine, 64 mM NaOH, pH 10).
# (§5) The compound was administered by i.v. infusion for 30 minutes at 0.12 mg/kg (dose volume 1 mL/kg at a speed of 2 mL/kg/h) or orally doses of 0.36 mg/kg. Blood samples were collected pre-dose and 0.25, 0.5 (just before the infusion is stopped), 0.75, 1, 1.5, 2.5, 4, 8, 16, 24 hr post dose for i.v. administration group. Blood samples were also collected pre-dose, 0.5, 1, 2, 3, 4, 8, 16 and 24 hr after administration in orally dosing group.
# in vivo = settings: male, cynomolgus monkey
# Procedure: as §3, §4, §5
# human GLP-1R = molecular target: T1, human GLP-1R (Homo sapiens, UniProt P43220); assay: GLP-1R cAMP assay (Example B1a, HTRF, 30 min at room temperature); type: cell-based
# T1 construct: host or cells: HEK293
# T1 sequence (P43220 24-463): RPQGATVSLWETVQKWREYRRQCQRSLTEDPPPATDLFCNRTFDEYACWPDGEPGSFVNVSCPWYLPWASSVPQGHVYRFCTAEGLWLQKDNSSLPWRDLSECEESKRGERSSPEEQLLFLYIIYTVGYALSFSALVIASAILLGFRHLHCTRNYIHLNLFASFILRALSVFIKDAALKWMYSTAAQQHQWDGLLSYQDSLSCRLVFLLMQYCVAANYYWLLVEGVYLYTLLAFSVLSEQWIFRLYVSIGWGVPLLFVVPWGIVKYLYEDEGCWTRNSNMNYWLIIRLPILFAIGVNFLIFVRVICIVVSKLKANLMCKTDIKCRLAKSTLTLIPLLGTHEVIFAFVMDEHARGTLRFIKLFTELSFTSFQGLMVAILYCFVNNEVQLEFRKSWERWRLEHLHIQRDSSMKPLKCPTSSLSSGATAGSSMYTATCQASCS
# Outline: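 Competitive HTRF read-out of cAMP after 30 min room-temperature stimulation, BETP absent, of human GLP-1R-HEK293 cells (1,000/well) in HEPES buffer with 500 μM IBMX and 0.1% BSA. Activation normalised to GLP-1(7-37) positive control. EC50 from 4-parameter non-linear regression.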
# [3] = test system: islets from a non-diabetic donor; assay: Glucose-stimulated insulin secretion (GSIS) in non-diabetic donor islets cultured ex vivo; type: cell-based; settings: compared with orforglipron or DMSO
# Procedure: Donor islets cultured ex vivo were assayed for GSIS in the presence of compound 36 (cpd 36), orforglipron or DMSO. Basal insulin secretion, stimulated insulin secretion and secretion index were measured.
# Donor islets cultured ex vivo were assayed for GSIS in the presence of compound 214, orforglipron or DMSO. Basal insulin secretion, stimulated insulin secretion and secretion index were measured.
# [4] = Pharmacokinetic analysis in male SD rats; type: in vivo
# Procedure: The rats have free access to food and water. Blood samples were collected pre-dose and 0.083, 0.25, 0.5, 1, 2, 4, 8, 24 hours post dose for i.v. administration group. Blood samples were also collected pre-dose and 0.25, 0.5, 1, 2, 4, 8, and 24 hours after administration in orally dosing group.
# [5] = test system: Type 2 diabetic donor islets; assay: Glucose-stimulated insulin secretion (GSIS) in Type 2 diabetic donor islets cultured ex vivo; type: cell-based; settings: islets cultured ex vivo for 8 days (FIG. 1A) or 12 days (FIG. 1B); compared with orforglipron or DMSO
# Procedure: Islets from a Type 2 diabetic donor were cultured ex vivo for 8 days (FIG. 1A) or 12 days (FIG. 1B) were assayed for GSIS in the presence of compound 36 (cpd 36), orforglipron or DMSO. Basal insulin secretion, stimulated insulin secretion and secretion index were measured.
# [6] = test system: ex-vivo cultured islets from a healthy donor; assay: Glucose-Stimulated Insulin Secretion (GSIS) assay, islets from a healthy donor; type: cell-based; settings: compared to DMSO, FIG. 2
# Procedure: as §1
# as §2, with “DNA. […]” for “DNA.”
# [7] = Sprague-Dawley (SD), rat, plasma, 1.0 mg/kg iv
# [8] = Sprague-Dawley (SD), rat, plasma, 5.0 mg/kg po
structure (smiles),measurement,setting,value
"Cc1cc(-n2nc3c(c2-n2ccn(-c4ccc5c(cnn5C)c4F)c2=O)[C@@H]2CC[C@H](C3)N2C(=O)c2cc3cc([C@H]4CCOC(C)(C)C4)ccc3n2[C@@]2(c3noc(=O)[nH]3)C[C@@H]2C)cc(C)c1F [Compound 36, 3-((1S,2S)-1-(5-((S)-2,2-dimethyltetrahydro-2H-pyran-4-yl)-2-((4S,7R)-3-(3-(4-fluoro-1-methyl-1H-indazol-5-yl)-2-oxo-2,3-dihydro-1H-imidazol-1-yl)-2-(4-fluoro-3,5-dimethylphenyl)-2,4,5,6,7,8-hexahydro-4,7-epiminocyclohepta [c]pyrazole-9-carbonyl)-1H-indol-1-yl)-2-methylcyclopropyl)-1,2,4-oxadiazol-5(4H)-one]",basal insulin secretion,"[1]; 2.8 mM glucose, FIG. 1A",decreased
same,stimulated insulin,"[1]; 11 mM glucose, FIG. 1A",improved
same,glucose-stimulated insulin secretion (GSIS),[1]; FIG. 1,potentiated GSIS; also recorded: overall relatively better than orforglipron
same,insulin secretion index,"[1]; ratio of stimulated insulin secretion at 11 mM glucose/basal insulin secretion at 2.8 mM glucose, FIG. 1B",improved
same,oral bioavailability compared with Orforglipron,[2],better oral bioavailability
same,Oral F,[2]; male,50.2%
same,AUC(0-inf),"in vivo; iv, 0.12 mg/kg",512 ng·h/mL
same,Vd,"in vivo; iv, 0.12 mg/kg",1.13 L/kg
same,clearance,"in vivo; iv, 0.12 mg/kg",3.98 mL/min/kg
same,half-life,"in vivo; iv, 0.12 mg/kg",4.55 h
same,AUC(0-inf),"in vivo; po, 0.36 mg/kg",771 ng·h/mL
same,Cmax,"in vivo; po, 0.36 mg/kg",121 ng/mL
same,Tmax,"in vivo; po, 0.36 mg/kg",2 h
same,half-life,"in vivo; po, 0.36 mg/kg",4.22 h
same,EC50 Ratio,"human GLP-1R; Table 1d, potency ratio of stereoisomer pair (less potent / more potent isomer)",>94
same,EC50,"human GLP-1R; Table 1d, stereoisomer pairs, read-out: EC50",109 nM
same,EC50,"human GLP-1R; cAMP accumulation in HEK293 expressing human GLP-1R, no BETP, 30 min room temperature (Method B1a, compounds ID 1-609), Table 1, read-out: EC50",109 nM
same,EC50,"human GLP-1R; text to Table 1d, bridge atoms configured into the plane or away from the reader, read-out: potency (EC50)",< 1000 nM
same,glucose-stimulated insulin secretion in islets from a non-diabetic donor,[3],increases glucose-stimulated insulin secretion
same,Oral F,[4]; 5.0 mg/kg po vs 1.0 mg/kg iv,29.6%
same,AUC(0-inf),[4]; [7],5050 ng·h/mL
same,clearance,[4]; [7],3.33 mL/min/kg
same,half-life,[4]; [7],5.04 h
same,Vd,"[4]; Sprague-Dawley (SD), rat, plasma, 1.0 mg/kg iv, read-out: Vdss",1.09 L/kg
same,AUC(0-inf),[4]; [8],7480 ng·h/mL
same,Cmax,[4]; [8],610 ng/mL
same,Tmax,[4]; [8],3.33 h
same,half-life,[4]; [8],4.93 h
same,exposure compared with Orforglipron,[4]; same doses (iv 1 mg/kg and po 5 mg/kg),significant higher exposure
same,responsiveness of Type 2 diabetic donor islets to glucose stimulation (GSIS),[5],increases the responsiveness of Type 2 diabetic donor islets to glucose stimulation
same,insulin secretion upon glucose stimulation,[6],potentiated islets to secrete more insulin upon glucose stimulation compared to DMSO
